One data set addresses MC1-receptor (Mus musculus, UniProt Q01727). The experiment in a line: Affinity for the MC1-receptor, binding assay with I125-NDP-αMSH as ligand. Conditions: read-out: Affinity for MC-receptors Ki MC1. Here is the method:
Test 1. Affinity for the MC1-receptor
The binding assay was carried out essentially as described by Lunec et al, Melanoma Res 1992; 2; 5-12, using I^125-NDP-αMSH as ligand.

Data set [1] deals with T1, MC3 (Homo sapiens, UniProt P41968). The experiment in a line: Affinity for the MC3-receptors, binding assay with I125-NDP-αMSH as ligand. Conditions: read-out: Affinity for MC-receptors Ki MC3. As to the method: (§1) Test 2. Affinity for the MC3-Receptors, the MC4-Receptors and the MC5-Receptors
T1 sequence (P41968 whole entry): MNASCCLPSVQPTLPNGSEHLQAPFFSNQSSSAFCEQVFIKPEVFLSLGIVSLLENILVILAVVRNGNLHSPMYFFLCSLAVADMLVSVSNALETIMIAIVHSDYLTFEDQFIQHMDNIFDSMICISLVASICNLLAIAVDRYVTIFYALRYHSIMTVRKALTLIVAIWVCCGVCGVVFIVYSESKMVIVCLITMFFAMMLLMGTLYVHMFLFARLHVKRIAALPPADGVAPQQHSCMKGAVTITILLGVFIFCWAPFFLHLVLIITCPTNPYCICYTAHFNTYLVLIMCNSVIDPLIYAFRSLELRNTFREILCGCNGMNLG
(§2) The binding assays were carried out essentially as described by Szardenings et al, J Biol Chem 1997; 272; 27943-27948 and Schiöth et al, FEES Lett 1997; 410; 223-228 using I^125-NDP-αMSH as ligand.

Data set [2] deals with T2, MC4 (Homo sapiens, UniProt P32245). As to the kind of experiment: Affinity for the MC4-receptors, binding assay with I125-NDP-αMSH as ligand. Conditions: read-out: Affinity for MC-receptors Ki MC4. As to the method: as §1, §2
T2 sequence (P32245 whole entry): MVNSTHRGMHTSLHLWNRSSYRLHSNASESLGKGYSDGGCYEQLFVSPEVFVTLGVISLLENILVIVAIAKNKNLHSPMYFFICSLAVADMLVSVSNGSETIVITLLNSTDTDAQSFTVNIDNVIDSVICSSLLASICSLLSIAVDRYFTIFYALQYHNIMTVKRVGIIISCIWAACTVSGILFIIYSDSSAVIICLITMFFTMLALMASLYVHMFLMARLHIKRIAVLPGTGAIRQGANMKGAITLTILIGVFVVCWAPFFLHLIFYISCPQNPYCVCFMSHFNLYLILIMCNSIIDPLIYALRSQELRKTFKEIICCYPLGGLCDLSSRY
Data set [3] deals with T3, MC5 (Homo sapiens, UniProt P33032). As to the kind of experiment: Affinity for the MC5-receptors, binding assay with I125-NDP-αMSH as ligand. The conditions noted are these: read-out: Affinity for MC-receptors Ki MC5. As to the method: as §1, §2
T3 sequence (P33032 whole entry): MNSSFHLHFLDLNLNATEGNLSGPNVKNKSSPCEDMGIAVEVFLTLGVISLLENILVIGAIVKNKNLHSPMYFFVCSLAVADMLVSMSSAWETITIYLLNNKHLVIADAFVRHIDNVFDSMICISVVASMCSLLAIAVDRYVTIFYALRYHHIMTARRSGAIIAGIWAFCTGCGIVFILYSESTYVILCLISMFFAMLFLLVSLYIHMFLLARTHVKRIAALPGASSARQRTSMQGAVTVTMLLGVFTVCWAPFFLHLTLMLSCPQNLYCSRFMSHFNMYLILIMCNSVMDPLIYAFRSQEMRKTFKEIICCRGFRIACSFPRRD
A further data set addresses MC1 (Homo sapiens, UniProt Q01726). As to the kind of experiment: Stimulation of cAMP, MC1. Type of data set: cell-based. As to the method:
(§3) The stimulation of cAMP was carried out essentially as described by Schiöth et al, Br J Pharmacol 1998; 124; 75-82.

For data set [4], the target named is T1, MC3. The experiment in a line: Stimulation of cAMP, MC3. The format is cell-based. Here is the method:
as §3

The target of data set [5] is T2, MC4. As to the kind of experiment: Stimulation of cAMP, MC4. Type of data set: cell-based. As to the method:
as §3

Data set [6] deals with T3, MC5. The experiment in a line: Stimulation of cAMP, MC5. Type of data set: cell-based. Here is the method:
as §3

The next data set deals with melanocortin receptors. As to the kind of experiment: Affinity to the melanocortin receptors. The format is binding.

MC1, sequence (Q01726 whole entry): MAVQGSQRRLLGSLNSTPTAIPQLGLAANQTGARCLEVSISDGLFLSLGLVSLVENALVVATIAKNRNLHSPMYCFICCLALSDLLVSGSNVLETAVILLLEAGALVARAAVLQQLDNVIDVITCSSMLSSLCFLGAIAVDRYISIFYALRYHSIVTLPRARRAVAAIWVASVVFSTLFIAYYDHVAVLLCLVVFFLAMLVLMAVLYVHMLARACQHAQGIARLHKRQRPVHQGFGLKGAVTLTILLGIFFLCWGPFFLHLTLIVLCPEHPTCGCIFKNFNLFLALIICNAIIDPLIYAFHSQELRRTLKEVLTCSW
MC1-receptor, sequence (Q01727 whole entry): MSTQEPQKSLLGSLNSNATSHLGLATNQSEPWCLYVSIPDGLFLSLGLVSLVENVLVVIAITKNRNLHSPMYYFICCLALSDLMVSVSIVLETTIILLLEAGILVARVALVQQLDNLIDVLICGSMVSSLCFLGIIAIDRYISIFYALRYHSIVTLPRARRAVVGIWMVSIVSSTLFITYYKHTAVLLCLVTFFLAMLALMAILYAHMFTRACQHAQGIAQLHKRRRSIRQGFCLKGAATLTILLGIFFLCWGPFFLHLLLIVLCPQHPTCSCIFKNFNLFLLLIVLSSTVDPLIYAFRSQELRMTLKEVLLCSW

`CC(=O)O.COc1cc(C=NNC(=N)N)cc(OC)c1OC`: the melting point is 223 to 225 °C.

The molecule `N=C(NO)NN=Cc1ccccc1S(=O)(=O)O` [1:134, N-(2-Sulphobenzylideneamino)-N′-hydroxyguanidine] had a melting point of 243.5 to 244 °C.

With `CC(=O)O.N=C(N)NN=Cc1cc(F)cc(F)c1[N+](=O)[O-]`, the melting point lay within 231 to 233 °C.

As for `CC(=O)O.COc1cc(Cl)c([N+](=O)[O-])cc1C=NNC(=N)N`, the melting point fell in the range of 196 to 199 °C.

Regarding `CC(=O)O.N=C(N)NN=Cc1ccc(F)c(F)c1`, the melting point was in the range of 176 to 178 °C.

As for `CC(=O)O.COc1cc([N+](=O)[O-])cc(C=NNC(=N)N)c1OC`, the melting point lay within 191 to 194 °C.

`CC(=O)O.N=C(N)NN=Cc1cc([N+](=O)[O-])ccc1F` gave a melting point of 192 to 195 °C.

`CC(=O)O.COc1c(Cl)cc(C=NNC(=N)N)cc1Cl` came in with a melting point of 185 to 190 °C.

Regarding `Cl.N=C(N)NN=Cc1c([N+](=O)[O-])ccc(Br)c1[N+](=O)[O-]`, the melting point was 166.5 to 168 °C.

As for `CC(=O)O.COc1c(Cl)cc(C=NNC(=N)N)cc1[N+](=O)[O-]`, the melting point is 255 to 258 °C (dec.).

For the molecule `CC(=O)O.COc1cc(O)c(C=NNC(=N)N)c(OC)c1`, the melting point was 115 to 118 °C.

Regarding `CC(=O)O.N=C(N)NN=Cc1cc([N+](=O)[O-])c(Br)cc1F`, the melting point is 175 to 198 °C (dec.).

Consider `Cl.N=C(N)NN=Cc1ccccc1S(=O)(=O)O`, for which the melting point is over 260 °C.

Consider `CC(=O)O.COc1c(C)cc(C=NNC(=N)N)cc1Br`, for which the melting point lay in the range of 163 to 166 °C.

For `CC(=O)O.N=C(N)NN=Cc1c(F)cccc1F`, the melting point lay in the range of 138.5 to 141 °C.

Take `COc1ccc(C=NNC(=N)NO)cc1[N+](=O)[O-]` [1:76, N-(4-Methoxy-3-nitrobenzylideneamino)-N′-hydroxyguanidine]: the melting point fell in the range of 219 to 221 °C.

For `CC(=O)O.N=C(N)NN=Cc1cc([N+](=O)[O-])cc([N+](=O)[O-])c1.O.O` (hydrate or solvate), the melting point was 251 to 254 °C (dec.).

As for `CC(=O)O.N=C(N)NN=Cc1ccc(F)c(Br)c1`, the melting point fell in the range of 172 to 173.5 °C.

`COc1ccc(C=NNC(=N)NO)cc1Br.Cc1ccc(S(=O)(=O)O)cc1` [1:3, N-(3-Bromo-4-methoxybenzylideneamino)-N′-hydroxyguanidine tosylate]: the inhibition constant (Ki) at MC1-receptor is 42 µM; on MC3 [1] it was 91 µM; on MC4 [2] it was 62 µM; on MC5 [3], 47 µM. Moreover, on MC1, the “Influence on cAMP MC1c” value was 8.4. The “Influence on cAMP MC3c” value at MC3 [4] was determined as 16. At MC4 [5], the “Influence on cAMP MC4c” value is recorded as 31.8. For the same molecule, the “Influence on cAMP MC5c” value on MC5 [6] is recorded as 4.7.

As to `CC(=O)O.N=C(N)NN=Cc1cc(Cl)cc([N+](=O)[O-])c1Br`, the melting point lay in the range of 136.5 to 137 °C.

Consider `Cl.N=C(N)NN=Cc1cc(Br)cc([N+](=O)[O-])c1O`, for which the melting point is over 250 °C.

The molecule `CC(=O)O.COc1ccc(C=NNC(=N)N)cc1[N+](=O)[O-]` had a melting point of 144 to 147 °C.

Molecule `COc1ccc(C=NNC(=N)N)cc1Br.Cl` came in with a melting point of 261 to 262.5 °C.

As to `CC(=O)O.COc1cc([N+](=O)[O-])c([N+](=O)[O-])c(C=NNC(=N)N)c1OC`, the melting point lay in the range of 165 to 171 °C.

For `Cl.N=C(N)NN=Cc1c(Cl)ccc([N+](=O)[O-])c1[N+](=O)[O-]`, the melting point was in the range of 153 to 154.5 °C.

`Cl.N=C(N)NN=Cc1cccc(I)c1` had a melting point of 203 to 204 °C.

For the molecule `CC(=O)O.N=C(N)NN=Cc1cc([N+](=O)[O-])ccc1Cl`, the melting point is 222 to 224 °C (dec.).

For `COc1cc([N+](=O)[O-])cc(C=NNC(=N)NO)c1OC.Cl`, the melting point was in the range of 196 to 197.5 °C.

Molecule `COc1cc([N+](=O)[O-])cc(C=NNC(=N)N)c1OC.Cl` came in with a melting point of 237 to 238 °C.

Regarding `CC(=O)O.N=C(N)NN=Cc1ccc(F)c([N+](=O)[O-])c1`, the melting point was 222 to 224 °C (dec.).

Consider `CC(=O)O.N=C(N)NN=Cc1c(Cl)ccc(Cl)c1[N+](=O)[O-]`, for which the melting point is 219.5 to 221 °C.

`CC(=O)O.COc1cc(OC)c([N+](=O)[O-])cc1C=NNC(=N)N` returned a melting point of 207 to 210 °C.

With `CC(=O)O.N=C(N)NN=Cc1cccc(F)c1F`, the melting point lay within 149 to 151.5 °C.

`CC(=O)O.Cc1ccc(C=NNC(=N)N)c([N+](=O)[O-])c1O` gave a melting point of 240 to 241 °C.

The molecule `Cc1cc(O)c(C=NNC(=N)N)cc1[N+](=O)[O-].Cl` displayed a melting point of 229 to 230 °C.

Molecule `CC(=O)O.N=C(N)NN=Cc1cc(Cl)cc(Cl)c1[N+](=O)[O-]` showed a melting point of 88 to 91 °C.

`CC(=O)O.N=C(N)NN=Cc1ccc([N+](=O)[O-])cc1[N+](=O)[O-]` came in with a melting point of 224 to 226 °C.

As for `CC(=O)O.COc1cc(OC)c(C=NNC(=N)N)c(OC)c1`, the melting point was in the range of 66 to 68 °C.

The molecule `COc1ccc(C=NNC(=N)N)c(OC)c1OC.Cl` displayed a melting point of 181 to 183 °C.

In the case of `CC(=O)O.COc1ccc(C=NNC(=N)N)c(O)c1`, the melting point lay in the range of 161 to 164 °C.

Consider `N=C(N)N/N=C/c1c(Cl)cccc1Cl` [Guanabenz], for which the “affinity to the melanocortin receptors” value in the data set on melanocortin receptors is reported as “no affinity”.

`Cc1ccc(S(=O)(=O)O)cc1.N=C(NO)NN=Cc1cc(Cl)ccc1[N+](=O)[O-]` [1:4, N-(5-Chloro-2-nitrobenzylideneamino)-N′-hydroxyguanidine tosylate]: the Ki on MC1-receptor was 42 µM; on MC3 [1], 68 µM; at MC4 [2] it was 61 µM; on MC5 [3], 33 µM. Moreover, the “Influence on cAMP MC1c” value on MC1 amounted to 6.4. Besides, the “Influence on cAMP MC3c” value at MC3 [4] is given as 1. For the same molecule, at MC4 [5], the “Influence on cAMP MC4c” value was 17.1. Besides, the “Influence on cAMP MC5c” value at MC5 [6] is recorded as 8.7.

`COc1cc([N+](=O)[O-])cc(C=NNC(=N)N)c1O.Cl` had a melting point of 243 to 246 °C.

Consider `COc1ccc([N+](=O)[O-])c(C=NNC(=N)N)c1[N+](=O)[O-].Cl`, for which the melting point lay within 217 to 218 °C.

`COc1c(C=NNC(=N)N)cc(Br)cc1[N+](=O)[O-].Cl` registered a melting point of 258 to 259 °C.

Molecule `CC(=O)O.N=C(N)NN=Cc1ccc(Br)c([N+](=O)[O-])c1` displayed a melting point of 152 to 153 °C.

As for `CC(=O)O.N=C(N)NN=Cc1ccc(Br)cc1F`, the melting point was in the range of 187 to 188 °C.

The molecule `Cc1cc([N+](=O)[O-])c(C=NNC(=N)N)cc1Br.Cl` came in with a melting point of 246.5 to 248 °C.

Molecule `CC(=O)O.COc1ccc(C=NNC(=N)N)c(Cl)c1OC` yielded a melting point of 198 to 200 °C.
